Assay results reported in patent US8470803B2, “Boron-containing small molecules” (Anacor Pharmaceuticals, Inc., priority 2008, dated 2013).

Tests used:
K-ATP channel = K-ATP channel (SUR) binding; cited from earlier work
TNF-α = experiment: Cytokine assay: TNF-α release, LPS-induced PBMC; type: cell-based; conditions: human PBMC, 1 μg/mL LPS, supernatant at 24 hours
Experimental: (§1) Frozen human peripheral blood mononucleocytes (PBMC) were thawed and centrifuged. Cryopreservation media was aspirated off of the cell pellet, and the cells were resuspended in fresh culture media (CM) comprising RPMI 1640 and 10% FBS in 96 well plates. Test article was dissolved in DMSO to form a 10 mM sample (DMSO, 100%). The 10 mM samples were diluted to 100 μM in CM (DMSO, 1%), then further diluted to 10, 1, 0.1, 0.01 μM in 200 μL of CM (n=3). Inducer (1 μg/mL) LPS for TNF-α or 20 ug/mL PHA for IFNγ, IL-2, IL-4, IL-5 and IL-10. IL-23 was induced with 100 ng/ml IFN-g+[…], using THP-1 cells. Vehicle (1% DMSO) was used as a control for this experiment. Vehicle without inducer was used as a negative control. Cells were incubated at 37° C., 5% CO2. Supernatants were extracted at 24 hours (for TNF-α, IL-2 and IFNγ) and 48 hours (for IL-4, IL-5, IL-10 and IL-23), and stored at −20° C. Supernatants were thawed and assayed for cytokine expression using the fluorochrome-labeled cytokine-specific beads and a BD FACSArray™. IL-23 was assayed using a commercial ELISA kit (R&D Systems).

IL-2 = experiment: Cytokine assay: IL-2 release, PHA-induced PBMC; type: cell-based; conditions: human PBMC, 20 ug/mL PHA, 24 hours
Experimental: as §1

IL-γ = experiment: Cytokine assay: IFNγ (IL-γ [sic]) release, PHA-induced PBMC; type: cell-based; conditions: human PBMC, 20 ug/mL PHA, 24 hours
Experimental: as §1

IL-4 = experiment: Cytokine assay: IL-4 release, PHA-induced PBMC; type: cell-based; conditions: human PBMC, 20 ug/mL PHA, 48 hours
Experimental: as §1

IL-5 = experiment: Cytokine assay: IL-5 release, PHA-induced PBMC; type: cell-based; conditions: human PBMC, 20 ug/mL PHA, 48 hours
Experimental: as §1

IL-10 = experiment: Cytokine assay: IL-10 release, PHA-induced PBMC; type: cell-based; conditions: human PBMC, 20 ug/mL PHA, 48 hours
Experimental: as §1

[1] = test system: T1, PDE4 partially purified from human U-937 myeloid leukemia cells; experiment: PDE4 assay ([3H]cAMP hydrolysis); type: biochemical; conditions: PDE4 from U-937 cells, 1 mM cAMP, pH 7.5, 20 minutes at 25° C.
T1 construct: PDE4 partially purified from human U-937 myeloid leukemia cells was used
Experimental: PDE4 partially purified from human U-937 myeloid leukemia cells was used. Test article and/or vehicle was incubated with 0.2 mg enzyme and 1 mM cAMP containing 0.01 mM [3H]cAMP in Tris buffer pH 7.5 for 20 minutes at 25° C. The reaction was terminated by boiling for 2 minutes and the resulting AMP is converted to adenosine by addition of 10 mg/ml snake venom nucleotidase and further incubation at 37° C. for 10 minutes. Unhydrolyzed cAMP is bound to AG1-X2 resin, and remaining [3H]Adenosine in the aqueous phase is quantitated by scintillation counting.

IL-23 = experiment: Cytokine assay: IL-23 release, IFN-g + LPS induced THP-1 cells; type: cell-based; conditions: Homo sapiens, 100 ng/ml IFN-g + 1 mg/ml LPS, 48 hours, ELISA
Experimental: as §1

| SMILES | pKi (K-ATP channel) | IC50 (TNF-α) [µM] | IC50 (IL-2) [µM] | IC50 (IL-γ) [µM] | IC50 (IL-4) [µM] | IC50 (IL-5) [µM] | IC50 (IL-10) [µM] | IC50 [1] [µM] | IC50 (IL-23) [µM] |
| --- | --- | --- | --- | --- | --- | --- | --- | --- | --- |
| CC1=NS(=O)(=O)c2cc(Cl)ccc2N1 [diazoxide] | 3.8 | – | – | – | – | – | – | – | – |
| CN(c1ccc(C#N)cc1)c1ccc2c(c1)COB2O [C3, 5-[N-(4-Cyanophenyl)-N-methylamino]-1,3-dihydro-1-hydroxybenzoxaborole] | – | 1.3 | 0.88 | 2 | > 10 | 3.5 | 3.1 | 0.387 | – |
| CC(C)(C)OC(=O)N(c1ccc(C#N)cc1)c1ccc2c(c1)COB2O [C1, 5-[N-tert-Butoxycarbonyl-(4-cyanophenylamino)]-1,3-dihydro-1-hydroxybenzoxaborole] | – | 1.1 | 0.96 | 0.62 | > 10 | 2.42 | 5.59 | 2.75 | – |
| COc1nc(Nc2ccc3c(c2)COB3O)ccc1C#N [C5, 6-(1-hydroxy-1,3-dihydrobenzo[c][1,2]oxaborol-5-ylamino)-2-methoxynicotinonitrile] | – | 0.26 | 0.21 | 0.3 | 23 | 0.7 | 3.7 | 0.34 | 2.74 |
| N#Cc1ccc(Nc2ccc3c(c2)COB3O)cc1 [C2, 5-(4-Cyanophenylamino)-1,3-dihydro-1-hydroxybenzoxaborole] | – | 1.08 | 0.13 | 1.51 | > 10 | 6.83 | > 10 | 0.414 | 7.35 |
| COc1nc(N(C(=O)OC(C)(C)C)c2ccc3c(c2)COB3O)ccc1C#N [C4, tert-Butyl 5-cyano-6-methoxypyridin-2-yl(1-hydroxy-1,3-dihydrobenzo[c][1,2]oxaborol-5-yl)carbamate] | – | 0.36 | 0.22 | 0.37 | 33 | 0.4 | 6 | 0.18 | 5.77 |
